Data on five molecules can be found in patent publication US10047051B2, “Substituted pyridines and method of use” (AbbVie S.á{acute over (.)}r.l., priority 2015, dated 2018).

Holding throughout (type): cell-based
The target of one assay is T1, CFTR G551D mutant (Homo sapiens, UniProt P13569, G551D).
T1 construct: expressed in transfected cells; host or cells: HEK293 cells, reverse transfection with plasmids
The assay is described as follows: YFP-halide influx assay for the CFTR-G551D mutation (HEK293 cells). The conditions noted are these: forskolin 10.67 μM. The procedure, abridged:
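Channel opening read as I⁻-driven quenching of a YFP H148Q/I152L/F47L reporter over 7 s post-injection, expressed as 1−F/F0 and fitted against concentration for EC50. Cells were HEK293 co-transfected at seeding with G551D CFTR plus reporter, then grown 24 h at 37 °C, 5% CO2.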

Another assay addresses T2, CFTR-G178R (Homo sapiens, UniProt P13569, G178R).
T2 construct: expressed in transfected cells
Description: YFP-halide influx assay for the CFTR-G178R. Put shortly: (§1)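 HEK293 cells reverse-transfected with a CFTR mutant and YFP H148Q/I152L/F47L halide sensor, expressed 24 h at 37° C. Fluorescence quenching followed for 7 s after I⁻ injection; activity expressed as 1−F/F0, with EC50 fitted from 1−F/F0 versus compound concentration.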

The target in a further assay is T3, CFTR-G1349D (Homo sapiens, UniProt P13569, G1349D).
T3 construct: expressed in transfected cells
The assay is described as follows: YFP-halide influx assay for the CFTR-G1349D. Put shortly:
as §1

For a further assay, the target named is T4, CFTR-S549N (Homo sapiens, UniProt P13569, S549N).
T4 construct: expressed in transfected cells
The assay is described as follows: YFP-halide influx assay for the CFTR-S549N. Also noted: % Activation: concentration or dose not given beside the values. Put shortly: as §1

For a further assay, the target named is T5, CFTR-R117H (Homo sapiens, UniProt P13569, R117H).
T5 construct: expressed in transfected cells
The assay is described as follows: YFP-halide influx assay for the CFTR-R117H. Put shortly: as §1

The target of another assay is T6, CFTR ΔF508 (Homo sapiens, UniProt P13569, DEL508-508).
T6 construct: host or cells: primary human bronchial epithelial cells from CF patients homozygous for ΔF508, pre-treated with VX809
The assay is described as follows: TECC assay, primary bronchial epithelial cells, CFTR ΔF508. The following applies: primary bronchial epithelial cells of CF patients homozygous for CFTR ΔF508, treated with 3 μM VX809, increase in Isc after forskolin. Put shortly: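 Short-circuit current (Isc) measured by TECC at 37 °C in NaCl-Ringer pH 7.4, using primary bronchial epithelia from ΔF508-homozygous CF patients, differentiated 21 days at air-liquid interface and corrected with 3 μM VX809. Recordings taken after amiloride and forskolin, every 2 min over 20 min, with compound added either acutely or chronically (48 h basolateral/24 h apical). Value is ΔIsc over the DMSO baseline; EC50 from concentration series.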

Structures are written as SMILES.

T3 sequence (P13569 whole entry G1349D): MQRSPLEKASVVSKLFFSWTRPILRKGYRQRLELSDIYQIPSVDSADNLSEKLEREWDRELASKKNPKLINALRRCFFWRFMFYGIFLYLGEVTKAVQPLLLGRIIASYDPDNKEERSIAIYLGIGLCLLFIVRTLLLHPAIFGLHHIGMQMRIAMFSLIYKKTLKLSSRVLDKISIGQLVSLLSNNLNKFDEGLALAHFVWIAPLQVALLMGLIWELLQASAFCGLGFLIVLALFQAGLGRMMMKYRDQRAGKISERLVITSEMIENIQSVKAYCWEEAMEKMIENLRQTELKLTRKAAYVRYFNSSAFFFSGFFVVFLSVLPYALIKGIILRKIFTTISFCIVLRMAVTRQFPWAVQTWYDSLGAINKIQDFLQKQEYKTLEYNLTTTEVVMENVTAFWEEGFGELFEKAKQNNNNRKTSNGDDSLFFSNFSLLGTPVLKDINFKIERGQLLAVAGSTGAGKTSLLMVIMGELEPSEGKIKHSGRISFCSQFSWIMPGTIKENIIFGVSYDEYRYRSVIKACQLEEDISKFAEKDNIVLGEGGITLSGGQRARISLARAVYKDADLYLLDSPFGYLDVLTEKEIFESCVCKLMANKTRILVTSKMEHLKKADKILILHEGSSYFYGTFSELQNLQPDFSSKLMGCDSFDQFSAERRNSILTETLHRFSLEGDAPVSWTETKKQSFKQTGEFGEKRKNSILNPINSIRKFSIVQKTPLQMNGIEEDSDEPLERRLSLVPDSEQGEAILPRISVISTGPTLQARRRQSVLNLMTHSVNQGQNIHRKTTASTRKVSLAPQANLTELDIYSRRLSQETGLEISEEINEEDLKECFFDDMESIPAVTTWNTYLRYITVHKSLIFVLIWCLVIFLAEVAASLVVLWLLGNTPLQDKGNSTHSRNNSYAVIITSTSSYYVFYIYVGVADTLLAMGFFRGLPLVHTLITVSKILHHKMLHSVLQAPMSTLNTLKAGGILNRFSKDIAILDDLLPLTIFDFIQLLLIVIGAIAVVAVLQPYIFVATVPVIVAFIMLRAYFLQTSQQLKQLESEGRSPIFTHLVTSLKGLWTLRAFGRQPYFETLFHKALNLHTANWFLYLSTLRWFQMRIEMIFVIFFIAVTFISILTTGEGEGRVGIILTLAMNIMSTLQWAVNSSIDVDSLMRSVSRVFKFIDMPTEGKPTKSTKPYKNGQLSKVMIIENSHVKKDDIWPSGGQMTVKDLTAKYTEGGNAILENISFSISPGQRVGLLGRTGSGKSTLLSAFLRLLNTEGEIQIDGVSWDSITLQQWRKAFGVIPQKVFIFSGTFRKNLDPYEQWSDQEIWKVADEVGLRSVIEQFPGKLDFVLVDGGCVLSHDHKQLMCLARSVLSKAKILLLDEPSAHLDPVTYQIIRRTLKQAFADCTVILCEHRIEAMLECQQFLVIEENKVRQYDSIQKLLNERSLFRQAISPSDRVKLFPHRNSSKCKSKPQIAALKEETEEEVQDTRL
T2 sequence (P13569 whole entry G178R): as the sequence (P13569 whole entry G1349D) above, with G178R, D1349G counted along it
T5 sequence (P13569 whole entry R117H): as the sequence (P13569 whole entry G1349D) above, with R117H, D1349G counted along it
T1 sequence (P13569 whole entry G551D): as the sequence (P13569 whole entry G1349D) above, with G551D, D1349G counted along it
T4 sequence (P13569 whole entry S549N): as the sequence (P13569 whole entry G1349D) above, with S549N, D1349G counted along it
T6 sequence (P13569 with tags, fused parts or gaps DEL508-508): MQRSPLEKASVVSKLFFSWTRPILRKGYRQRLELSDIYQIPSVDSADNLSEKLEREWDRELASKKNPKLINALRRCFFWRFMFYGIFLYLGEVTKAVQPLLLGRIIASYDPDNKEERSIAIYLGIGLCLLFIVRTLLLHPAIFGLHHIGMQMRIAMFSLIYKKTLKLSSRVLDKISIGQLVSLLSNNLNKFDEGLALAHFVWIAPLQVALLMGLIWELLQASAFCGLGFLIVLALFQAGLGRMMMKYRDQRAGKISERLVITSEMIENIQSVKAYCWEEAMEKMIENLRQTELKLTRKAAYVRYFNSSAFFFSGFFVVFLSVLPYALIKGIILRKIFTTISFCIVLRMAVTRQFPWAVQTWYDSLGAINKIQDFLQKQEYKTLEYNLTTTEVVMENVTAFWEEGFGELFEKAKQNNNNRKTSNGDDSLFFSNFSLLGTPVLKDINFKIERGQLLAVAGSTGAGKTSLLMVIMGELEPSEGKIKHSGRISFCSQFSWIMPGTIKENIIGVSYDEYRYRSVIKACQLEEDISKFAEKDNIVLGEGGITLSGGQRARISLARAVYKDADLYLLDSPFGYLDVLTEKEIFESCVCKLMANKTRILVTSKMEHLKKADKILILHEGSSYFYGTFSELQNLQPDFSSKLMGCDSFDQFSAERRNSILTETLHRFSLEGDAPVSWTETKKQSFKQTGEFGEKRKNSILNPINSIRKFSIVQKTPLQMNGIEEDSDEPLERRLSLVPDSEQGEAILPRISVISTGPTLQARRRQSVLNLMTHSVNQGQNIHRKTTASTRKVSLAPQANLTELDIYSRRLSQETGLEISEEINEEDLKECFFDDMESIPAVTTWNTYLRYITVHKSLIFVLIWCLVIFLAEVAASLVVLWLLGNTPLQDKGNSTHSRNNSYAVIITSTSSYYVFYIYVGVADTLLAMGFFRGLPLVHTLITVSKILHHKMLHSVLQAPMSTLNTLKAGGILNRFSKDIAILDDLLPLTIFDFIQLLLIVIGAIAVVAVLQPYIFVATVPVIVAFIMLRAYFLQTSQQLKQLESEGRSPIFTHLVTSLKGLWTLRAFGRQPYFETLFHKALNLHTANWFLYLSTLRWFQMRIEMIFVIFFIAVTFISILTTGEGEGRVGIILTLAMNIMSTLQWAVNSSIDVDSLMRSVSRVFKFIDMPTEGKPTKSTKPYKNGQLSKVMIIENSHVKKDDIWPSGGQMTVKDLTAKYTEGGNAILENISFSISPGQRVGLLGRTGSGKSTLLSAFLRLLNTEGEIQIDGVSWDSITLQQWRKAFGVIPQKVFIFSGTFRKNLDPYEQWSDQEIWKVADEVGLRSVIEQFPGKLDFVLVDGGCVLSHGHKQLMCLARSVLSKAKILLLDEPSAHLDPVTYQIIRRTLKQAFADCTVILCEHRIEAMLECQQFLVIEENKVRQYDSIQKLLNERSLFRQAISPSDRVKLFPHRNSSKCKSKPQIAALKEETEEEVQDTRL

Regarding `Nc1cc(S(=O)(=O)c2ccc(F)cc2)cnc1C(=O)NC[C@H](O)C(F)(F)F` [Compound 25, 3-amino-5-[(4-fluorophenyl)sulfonyl]-N-[(2S)-3,3,3-trifluoro-2-hydroxypropyl]pyridine-2-carboxamide], the “% Activation” value at CFTR G551D mutant is 67.2%; on CFTR-G178R it was 76.8%; at CFTR-G1349D it was 82.6%; on CFTR-S549N, 82.5%; on CFTR-R117H it was 91.3%. Besides, the 50% effective concentration (EC50) was found to be 976 nM on CFTR G551D mutant; 211 nM at CFTR-G178R; 412 nM at CFTR-G1349D; 292 nM at CFTR-S549N; 318 nM on CFTR-R117H; 38.6 nM at CFTR ΔF508.
Consider `Nc1cc(S(=O)(=O)c2ccc(OC(F)(F)F)cc2)cnc1C(=O)N1CC(F)(F)C1` [Compound 40, (3-amino-5-{[4-(trifluoromethoxy)phenyl]sulfonyl}pyridin-2-yl)(3,3-difluoroazetidin-1-yl)methanone], for which the “% Activation” value on CFTR G551D mutant stood at 70.2%; on CFTR-G178R it was 81.76%; on CFTR-G1349D, 84.31%; at CFTR-S549N, 84.51%; at CFTR-R117H, 86.71%. Moreover, the concentration for a half-maximal effect (EC50) at CFTR G551D mutant worked out at 656 nM; on CFTR-G178R, 392 nM; at CFTR-G1349D, 440 nM; at CFTR-S549N, 1200 nM; on CFTR-R117H it was 291 nM; at CFTR ΔF508, 62.2 nM.
On to `COC[C@H](O)CNC(=O)c1ncc(S(=O)(=O)c2ccc(C(F)(F)F)cc2)cc1N` [Compound 70, 3-amino-N-[(2R)-2-hydroxy-3-methoxypropyl]-5-{[4-(trifluoromethyl)phenyl]sulfonyl}pyridine-2-carboxamide], for which the “% Activation” value on CFTR G551D mutant was found to be 75.3%; at CFTR-G178R, 96.0%; on CFTR-G1349D, 89.6%; on CFTR-S549N, 104.7%; at CFTR-R117H, 98.8%. Also, the concentration for a half-maximal effect (EC50) on CFTR G551D mutant was 864 nM; on CFTR-G178R, 425 nM; at CFTR-G1349D it was 378 nM; at CFTR-S549N, 526 nM; on CFTR-R117H, 540 nM; on CFTR ΔF508 it was 38.8 nM.
`Nc1cc(S(=O)(=O)c2ccc(OC(F)(F)F)cc2)cnc1C(=O)NCC(O)C(F)(F)F` (stereo not shown) [Compound 6, 3-amino-N-(3,3,3-trifluoro-2-hydroxypropyl)-5-{[4-(trifluoromethoxy)phenyl]sulfonyl}pyridine-2-carboxamide]: the “% Activation” value was 82.5% at CFTR G551D mutant; 93.1% on CFTR-G178R; 87.4% at CFTR-G1349D; 87.1% on CFTR-S549N; 95.7% at CFTR-R117H. The EC50 worked out at 350 nM at CFTR G551D mutant; 80.7 nM on CFTR-G178R; 158 nM on CFTR-G1349D; 390 nM on CFTR-S549N; 63.9 nM on CFTR-R117H; 63.2 nM on CFTR ΔF508.
Turning to `Nc1cc(S(=O)(=O)c2ccc(F)cc2)cnc1C(=O)NC[C@@H](O)C(F)(F)F` [Compound 36, 3-amino-5-[(4-fluorophenyl)sulfonyl]-N-[(2R)-3,3,3-trifluoro-2-hydroxypropyl]pyridine-2-carboxamide], the “% Activation” value at CFTR G551D mutant was 58.4%; on CFTR-G178R, 79.3%; on CFTR-G1349D it was 82.7%; on CFTR-S549N it was 92.9%; on CFTR-R117H, 100.8%. Also, the concentration for a half-maximal effect (EC50) was 667 nM on CFTR G551D mutant; 230 nM at CFTR-G178R; 312 nM on CFTR-G1349D; 294 nM on CFTR-S549N; 148 nM at CFTR-R117H; 63 nM at CFTR ΔF508.

One may read the EC50 as the concentration giving half of the maximal effect.
